This experiment relates to Mycobacterium tuberculosis. Kind of experiment: Antimycobacterial activity against Mycobacterium tuberculosis H37Rv. The format is functional, organism-based.

In ChEMBL document CHEMBL1142097, “EthA, a common activator of thiocarbamide-containing drugs acting on different mycobacterial targets” (Antimicrob Agents Chemother, 2007) one finds Activity data, which are given here for one molecule.

Calls of active or inactive are those of the source. The rule behind the calls is not given here.

With `COc1ccc(/C(C)=N/NC(N)=S)cc1`, the result was Active.
